Experiments:
Assay type in all cases: in vivo
Kochia (Kochia scoparia) [1] = assay: Test A preemergence; details: Bassia scoparia, pre-emergence, 240 h, Preemergence; for pest or weed control at 31 g/ha: 31 g ai/ha, 0 to 100 scale where 0 is no effect and 100 is complete control, read-out: Kochia plant response rating; for pest or weed control at 125 g/ha: 125 g ai/ha, visual injury rating after approximately 10 d, read-out: Kochia plant response rating (0 to 100 scale, 0 is no effect, 100 is complete control)
Summary of the method: (§1)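 Each rating is a visual injury score from 0 to 100 given about 10 d after treatment, judged against untreated controls kept alongside in the greenhouse. In loam soil–sand blend, seeds got a preemergence directed soil spray, while postemergence plants were 2 to 10 cm tall at spraying.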

[2] = system: barnyardgrass (Echinochloa crus-galli); assay: Test A preemergence; details: Echinochloa crus-galli, pre-emergence, 240 h, Preemergence; for pest or weed control at 125 g/ha: 125 g ai/ha, visual injury rating after approximately 10 d, read-out: Barnyardgrass plant response rating (0 to 100 scale, 0 is no effect, 100 is complete control); for pest or weed control at 31 g/ha: 31 g ai/ha, 0 to 100 scale (0 no effect, 100 complete control), read-out: Plant response rating, Barnyardgrass
Summary of the method: as §1

[3] = system: giant foxtail (Setaria faberii); assay: Test A preemergence; details: Setaria faberi, pre-emergence, 240 h, Preemergence; for pest or weed control at 125 g/ha: 125 g ai/ha, visual injury rating after approximately 10 d, read-out: Foxtail, Giant plant response rating (0 to 100 scale, 0 is no effect, 100 is complete control); for pest or weed control at 31 g/ha: 31 g ai/ha, 0 to 100 scale (0 no effect, 100 complete control), read-out: Plant response rating, Foxtail, Giant
Summary of the method: as §1

[4] = system: pigweed (Amaranthus retroflexus); assay: Test A preemergence; details: Amaranthus retroflexus, pre-emergence, 240 h, Preemergence; for pest or weed control at 31 g/ha: 31 g ai/ha, 0 to 100 scale where 0 is no effect and 100 is complete control, read-out: Pigweed plant response rating; for pest or weed control at 125 g/ha: 125 g ai/ha, visual injury rating after approximately 10 d, read-out: Pigweed plant response rating (0 to 100 scale, 0 is no effect, 100 is complete control)
[5] = system: ragweed (common ragweed, Ambrosia elatior); assay: Test A preemergence; details: Ambrosia artemisiifolia, pre-emergence, 240 h, Preemergence; for pest or weed control at 31 g/ha: 31 g ai/ha, 0 to 100 scale where 0 is no effect and 100 is complete control, read-out: Ragweed plant response rating; for pest or weed control at 125 g/ha: 125 g ai/ha, visual injury rating after approximately 10 d, read-out: Ragweed plant response rating (0 to 100 scale, 0 is no effect, 100 is complete control)
Summary of the method: as §1

[6] = system: ryegrass, Italian (Italian ryegrass, Lolium multiflorum); assay: Test A preemergence; details: Lolium multiflorum, pre-emergence, 240 h, Preemergence; for pest or weed control at 31 g/ha: 31 g ai/ha, 0 to 100 scale where 0 is no effect and 100 is complete control, read-out: Ryegrass, Italian plant response rating; for pest or weed control at 125 g/ha: 125 g ai/ha, visual injury rating after approximately 10 d, read-out: Ryegrass, Italian plant response rating (0 to 100 scale, 0 is no effect, 100 is complete control)
Summary of the method: as §1

[7] = system: Galium (catchweed bedstraw, Galium aparine); assay: Test A postemergence; details: Galium, post-emergence, 240 h, Postemergence, read-out: Plant response rating, Galium; for pest or weed control at 125 g/ha: 125 g ai/ha, visual injury after approximately 10 d, 0 to 100 scale where 0 is no effect and 100 is complete control; for pest or weed control at 31 g/ha: 31 g ai/ha, visual injury after approx. 10 d, 0 to 100 scale, 0 no effect, 100 complete control
Summary of the method: as §1

Kochia (Kochia scoparia) [8] = assay: Test A postemergence; details: Bassia scoparia, post-emergence, 240 h, Postemergence, read-out: Plant response rating, Kochia; for pest or weed control at 125 g/ha: 125 g ai/ha, visual injury after approximately 10 d, 0 to 100 scale where 0 is no effect and 100 is complete control; for pest or weed control at 31 g/ha: 31 g ai/ha, visual injury after approx. 10 d, 0 to 100 scale, 0 no effect, 100 complete control
Summary of the method: as §1

[9] = system: barnyardgrass (Echinochloa crus-galli); assay: Test A postemergence; details: Echinochloa crus-galli, post-emergence, 240 h, Postemergence, read-out: Plant response rating, Barnyardgrass; for pest or weed control at 125 g/ha: 125 g ai/ha, visual injury after approximately 10 d, 0 to 100 scale where 0 is no effect and 100 is complete control; for pest or weed control at 31 g/ha: 31 g ai/ha, visual injury after approx. 10 d, 0 to 100 scale, 0 no effect, 100 complete control
Summary of the method: as §1

[10] = system: blackgrass (Alopecurus myosuroides); assay: Test A postemergence; details: Alopecurus myosuroides, post-emergence, 240 h, Postemergence, read-out: Plant response rating, Blackgrass; for pest or weed control at 125 g/ha: 125 g ai/ha, visual injury after approximately 10 d, 0 to 100 scale where 0 is no effect and 100 is complete control; for pest or weed control at 31 g/ha: 31 g ai/ha, visual injury after approx. 10 d, 0 to 100 scale, 0 no effect, 100 complete control
Summary of the method: as §1

corn (Zea mays) = assay: Test A postemergence; details: Zea mays, post-emergence, 240 h, Postemergence; for Corn plant response rating (crop injury, 0 = no effect, 100 = complete kill) at 125 g/ha: 125 g ai/ha, visual injury after approximately 10 d, 0 to 100 scale where 0 is no effect and 100 is complete control; for Corn plant response rating (crop injury, 0 = no effect, 100 = complete kill) at 31 g/ha: 31 g ai/ha, visual injury after approx. 10 d, 0 to 100 scale, 100 complete control
Summary of the method: as §1

[11] = system: giant foxtail (Setaria faberii); assay: Test A postemergence; details: Setaria faberi, post-emergence, 240 h, Postemergence, read-out: Plant response rating, Foxtail, Giant; for pest or weed control at 125 g/ha: 125 g ai/ha, visual injury after approximately 10 d, 0 to 100 scale where 0 is no effect and 100 is complete control; for pest or weed control at 31 g/ha: 31 g ai/ha, visual injury after approx. 10 d, 0 to 100 scale, 0 no effect, 100 complete control
Summary of the method: as §1

[12] = system: pigweed (Amaranthus retroflexus); assay: Test A postemergence; details: Amaranthus retroflexus, post-emergence, 240 h, Postemergence, read-out: Plant response rating, Pigweed; for pest or weed control at 125 g/ha: 125 g ai/ha, visual injury after approximately 10 d, 0 to 100 scale where 0 is no effect and 100 is complete control; for pest or weed control at 31 g/ha: 31 g ai/ha, visual injury after approx. 10 d, 0 to 100 scale, 0 no effect, 100 complete control
Summary of the method: as §1

[13] = system: ragweed (common ragweed, Ambrosia elatior); assay: Test A postemergence; details: Ambrosia artemisiifolia, post-emergence, 240 h, Postemergence, read-out: Plant response rating, Ragweed; for pest or weed control at 125 g/ha: 125 g ai/ha, visual injury after approximately 10 d, 0 to 100 scale where 0 is no effect and 100 is complete control; for pest or weed control at 31 g/ha: 31 g ai/ha, visual injury after approx. 10 d, 0 to 100 scale, 0 no effect, 100 complete control
Summary of the method: as §1

[14] = system: ryegrass, Italian (Italian ryegrass, Lolium multiflorum); assay: Test A postemergence; details: Lolium multiflorum, post-emergence, 240 h, Postemergence, read-out: Plant response rating, Ryegrass, Italian; for pest or weed control at 125 g/ha: 125 g ai/ha, visual injury after approximately 10 d, 0 to 100 scale where 0 is no effect and 100 is complete control; for pest or weed control at 31 g/ha: 31 g ai/ha, visual injury after approx. 10 d, 0 to 100 scale, 0 no effect, 100 complete control
Summary of the method: as §1

[15] = system: wheat (Triticum aestivum); assay: Test A postemergence; details: Triticum aestivum, post-emergence, 240 h, Postemergence, read-out: Plant response rating, Wheat; for plant injury at 125 g/ha: 125 g ai/ha, visual injury after approximately 10 d, 0 to 100 scale where 0 is no effect and 100 is complete control; for plant injury at 31 g/ha: 31 g ai/ha, visual injury after approx. 10 d, 0 to 100 scale, 0 no effect, 100 complete control
Summary of the method: as §1

[16] = system: barnyardgrass (Echinochloa crus-galli); assay: Test B flooded paddy test; details: Echinochloa crus-galli, 250 g ai/ha, Flood; 0 to 100 scale where 0 is no effect and 100 is complete control; read-out: Barnyardgrass plant response rating
Summary of the method: (§2)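 Compound goes directly into floodwater once pots are flooded 3 cm above soil, targeting plants at two leaves; the water depth is then held for the test duration. Plants sit 13–15 d in a greenhouse and are rated visually, 100 denoting complete control.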

[17] = system: ducksalad (Heteranthera limosa); assay: Test B flooded paddy test; details: Heteranthera limosa, 250 g ai/ha, Flood; 0 to 100 scale where 0 is no effect and 100 is complete control; read-out: Ducksalad plant response rating
Summary of the method: as §2

rice (Oryra sativa) = assay: Test B flooded paddy test; details: Oryza sativa, 250 g ai/ha, Flood; 0 to 100 scale where 0 is no effect and 100 is complete control; read-out: Rice plant response rating
Summary of the method: as §2

[18] = system: sedge, umbrella (small-flower umbrella sedge, Cyperus difformis); assay: Test B flooded paddy test; details: Cyperus difformis, 250 g ai/ha, Flood; 0 to 100 scale where 0 is no effect and 100 is complete control; read-out: Sedge, Umbrella plant response rating
Summary of the method: as §2

Compound	pest or weed control at 31 g/ha (Kochia (Kochia scoparia) [1])	pest or weed control at 125 g/ha (Kochia (Kochia scoparia) [1])	pest or weed control at 125 g/ha [2]	pest or weed control at 31 g/ha [2]	pest or weed control at 125 g/ha [3]	pest or weed control at 31 g/ha [3]	pest or weed control at 31 g/ha [4]	pest or weed control at 125 g/ha [4]	pest or weed control at 31 g/ha [5]	pest or weed control at 125 g/ha [5]	pest or weed control at 31 g/ha [6]	pest or weed control at 125 g/ha [6]	pest or weed control at 125 g/ha [7]	pest or weed control at 31 g/ha [7]	pest or weed control at 125 g/ha (Kochia (Kochia scoparia) [8])	pest or weed control at 31 g/ha (Kochia (Kochia scoparia) [8])	pest or weed control at 125 g/ha [9]	pest or weed control at 31 g/ha [9]	pest or weed control at 125 g/ha [10]	pest or weed control at 31 g/ha [10]	other results
O=C(Nc1cccc(F)c1F)[C@H]1C(=O)N(C2CC2)CC[C@@H]1c1ccc(F)cc1 [Compound 1003]	0%	0%	0%	0%	60%	0%	0%	0%	0%	0%	0%	0%	0%	0%	0%	0%	0%	0%	0%	0%	Corn plant response rating (crop injury, 0 = no effect, 100 = complete kill) at 125 g/ha (corn (Zea mays)): 0%; Corn plant response rating (crop injury, 0 = no effect, 100 = complete kill) at 31 g/ha (corn (Zea mays)): 0%; pest or weed control at 125 g/ha [11]: 0%; pest or weed control at 31 g/ha [11]: 0%; pest or weed control at 125 g/ha [12]: 0%; pest or weed control at 31 g/ha [12]: 0%; pest or weed control at 125 g/ha [13]: 0%; pest or weed control at 31 g/ha [13]: 0%; pest or weed control at 125 g/ha [14]: 0%; pest or weed control at 31 g/ha [14]: 0%; plant injury at 125 g/ha [15]: 0%; plant injury at 31 g/ha [15]: 0%; pest or weed control at 250 g/ha [16]: 0%; pest or weed control at 250 g/ha [17]: 0%; pest or weed control at 250 g/ha (rice (Oryra sativa)): 0%; pest or weed control at 250 g/ha [18]: 0%
CSc1ccccc1NC(=O)[C@H]1C(=O)N(C2CC2)CC[C@@H]1c1ccc(F)cc1 [Compound 1005]	0%	0%	0%	0%	0%	0%	0%	0%	0%	0%	0%	0%	0%	0%	0%	0%	0%	0%	0%	0%	Corn plant response rating (crop injury, 0 = no effect, 100 = complete kill) at 125 g/ha (corn (Zea mays)): 0%; Corn plant response rating (crop injury, 0 = no effect, 100 = complete kill) at 31 g/ha (corn (Zea mays)): 0%; pest or weed control at 125 g/ha [11]: 0%; pest or weed control at 31 g/ha [11]: 0%; pest or weed control at 125 g/ha [12]: 0%; pest or weed control at 31 g/ha [12]: 0%; pest or weed control at 125 g/ha [13]: 0%; pest or weed control at 31 g/ha [13]: 0%; pest or weed control at 125 g/ha [14]: 0%; pest or weed control at 31 g/ha [14]: 0%; plant injury at 125 g/ha [15]: 0%; plant injury at 31 g/ha [15]: 0%; pest or weed control at 250 g/ha [16]: 0%; pest or weed control at 250 g/ha [17]: 0%; pest or weed control at 250 g/ha (rice (Oryra sativa)): 0%; pest or weed control at 250 g/ha [18]: 0%
